The text below walks through data of US12398117B2, “Heteroarylamidopyridinol derivative and pharmaceutical composition comprising same as active ingredient for prevention or treatment of autoimmune disease” (INNOVO THERAPEUTICS INC., priority 2019, dated 2025).

The subject of assay [1] is adhesion of intestinal epithelial cells (HT-29) and monocytic cells (U937) induced by IL-6. As to the kind of experiment: Inhibition of IL-6-induced adhesion of monocytes and intestinal epithelial cells. The assay is classed as cell-based, human. The settings on record: Homo sapiens, 3 h; test drug 1 μM; IL-6 10 ng/mL; HT-29/U937; read-out: inhibitory activity (%). As for the experimental part:
The inhibitory activity test for intestinal epithelial cell-monocyte adhesion by IL-6 was performed using the same method as in the case of TNF-α. HT-29 cells were cultured in a 24-well plate at the density of 2×10^5 cells/cm^2, and the test drug was pretreated in a medium containing 1% FBS and 1% PS for 1 hour. Thereafter, 10 μg/mL of BCECF-AM was treated thereto and reacted at 37° C. for 30 minutes. U937 cells loaded with BCECF and IL-6 (10 ng/mL) were reacted with HT-29 cells previously treated with the test drug at 37° C. for 3 hours. Upon completion of the reaction, the medium was removed, and the culture flask was washed twice with PBS to remove non-adherent U937 cells. In the next step, the cells were lysed by treating with 0.1% Triton X-100 (0.1 M Tris) and reacted at room temperature for 30 minutes. Then, fluorescence was measured and quantified using a fluostar optima microplate reader (BMG Labtechnologies, Germany).

The subject of assay [2] is DSS-induced chronic enteritis mouse model. Nature of the assay: Oral efficacy in DSS-induced chronic enteritis mouse model. The assay is classed as in vivo, C57BL/6 mice. Particulars: for Morphological observation of colon (length, macroscopic symptoms, adhesions, congestion): DSS mouse, sulfasalazine 300 mg/kg, tofacitinib 30 mg/kg, FIG. 2C; for Body weight recovery rate (%) / Intestinal weight recovery rate (%): chronic enteritis (DSS-water-DSS, total 35 days), mouse. How it is done:
(§1) C57BL/6 mice aged 7-8 weeks were purchased from OrientBio (Korea), stabilized with general solid feed for 7 days, and then used in this experiment. Feed and water were freely supplied during the experiment period, and the temperature of the breeding room was maintained at 25±1° C. and the relative humidity at 50±10%. Lighting management was controlled in a 12-hour light-dark cycle by an automatic lighting controller.
(§2) Enteritis was induced in mice by allowing them to freely ingest drinking water containing 2% DSS salt (M.W. 36,000˜50,000, MP Biomedicals, LLC, OH, USA). For the chronic enteritis model, DSS was administered using a schedule of DSS administration for the first 7 days, administration of normal drinking water for 14 days, repeated administration of DSS for 7 days from the 21st day, and administration of normal drinking water for 7 days. The drug was administered once a day, 6 days a week from the first day of DSS treatment (FIG. 2A). […] In order to measure the dose-dependent therapeutic effect of the drug in the acute enteritis model, DSS was administered for 5 days to induce enteritis, and then the drug was administered for 14 days to measure the degree of recovery and treatment of enteritis (FIG. 3A). The drug was administered orally once daily for […] at a fixed time.
(§3) Changes in body weight of each mouse were observed during the DSS and drug administration using a digital mass meter.
(§4) The colon of the mouse was extracted, and the length and weight from the anus to the cecum were measured.
(§5) Tissue staining was performed in the same manner as in the case of hematoxylin/eosin staining of the rat colon tissue, and scoring indexes of mucosal damage and recovery were applied in the same way.

In assay [3] the test system is DSS-induced acute enteritis mouse model. Nature of the assay: Oral efficacy in DSS-induced acute enteritis mouse model. Format: in vivo, C57BL/6 mice. The settings on record: acute enteritis (DSS), mouse. As for the experimental part:
as §1, §2, §3, §4
The degree of neutrophil infiltration in the tissue was measured by the amount of MPO, a neutrophil marker enzyme. The colon tissue with a size of 1 cm was washed with cold PBS and weighed, to which a lysis buffer (pH7.4, 200 mM NaCl, 5 mM EDTA, 10 mM tris, 10% glycerin, 1 mM PMSF, 1 μg/mL leupeptin and 28 μg/mL aprotinin) was added (500 μL of per 10 mg of tissue weight), and then homogenized using Bead Blaster® D2400 homogenizer (Benchmark Scientific, NJ, USA). […] (HK210, Hycult Biotechnology, Netherlands). The supernatant was added to a 96 well plate (100 μL/well) coated with an anti-mouse MPO antibody, and incubated for 1 hour at room temperature, followed by washing 3 times with a washing buffer. A reconstituted tracer was added to the plate (100 μL/well), which was reacted at room temperature for 1 hour, washed 3 times, and then 100 μL of streptavidin-peroxidase conjugate was added to each well of the plate. The plate was reacted at room temperature for 1 hour, washed, and 100 μl of TMB substrate solution was added to each well of the plate, followed by reaction for 30 minutes. The reaction was terminated by adding 100 μL of a stop solution to each well of the plate, and absorbance was measured at 450 nm. MPO activity means the amount of 1 μM […] at 25° C. for 1 minute. This was calculated as the amount of MPO contained in 1 mL of the colon tissue homogenate.
as §5

Assay [4] has as its system collagen-induced rheumatoid arthritis animal model. As to the kind of experiment: Oral efficacy in collagen-induced rheumatoid arthritis (CIA) mouse model. Format: in vivo, DBA/1J mice. The settings on record: oral, up to 35 days, FIG. 5A. How it is done: 12-week-old normal male mice and arthritis-induced DBA/1J mice were purchased from Central Lab. Animal Inc [To induce arthritis, DBA/1J mice were sensitized by injecting a mixed solution of Complete Freund's Adjuvant (CFA; DIFCO, Detroit, MI) and Bovine Type II collagen (1:1, v/v) intradermally at the pinna base at 8 weeks of age, and then, secondary sensitization was performed by intradermal injection at the tail head at 11 weeks of age]. The purchased arthritis mice were acclimatized to the laboratory environment for a week, and then oral administration of the drug was started.
Visual observation of arthritic lesions was performed using the following scores based on a reference (Barnett et al., 1998).
Therefore, the highest score for arthritic lesions was 16 per mouse.
The hind paw thickness, which is one of the pathological indices of rheumatoid arthritis, was measured using a caliper.
The right hind leg of each mouse was extracted, and all skin and muscles were removed, leaving only the bones and joints. The hind leg was fixed in 4% paraformaldehyde solution for 2 days, then immersed in 10% formic acid for 5 days to decalcify, and then immersed in 30% sucrose solution. When the tissue subsided, the articular tissue was cut into […] thick using a cryomicrotome (Microm HM 450, Thermo Fisher Scientific, Germany) and stored in a cryopreservation solution. Staining was performed using the stored tissue sections. After attaching the tissue sections to the slide glass, they were hydrated with 100%, 95%, 70%, and 50% ethanol solutions, and some were stained with safranin and others were stained with hematoxylin/eosin. For safranin staining, the tissue sections were first stained with 0.1% fast green solution, washed with 1% acetic acid solution, and then stained with 1% safranin solution. Thereafter, the tissue sections were dehydrated by immersing in ethanol solutions in the reverse order of hydration, and then preserved in xylene solution and mounting solution, and photographed under a microscope. Hematoxylin/eosin staining was performed in the same manner as in the colon tissue staining. The tissue sections were dehydrated, preserved in xylene solution and mounting solution, and observed under a microscope.
The degree of microscopic tissue damage of the stained articular tissue was measured using the following scores.
After the spleen and draining lymph nodes of the mice were extracted, the number of immune cells was counted. To confirm the distribution of Th1 and Th17 cells, the immune cells obtained from each organ were stimulated using PMA/Ionomycin and Golgi stop.
After staining using an anti-IFN-γ antibody that can identify Th1 cells, an anti-IL-17 antibody that can identify Th17 cells, and an anti-CD8 antibody that can identify cytotoxic T cells, the proportion of inflammatory cells among the total immune cells was confirmed using flow cytometry.

In assay [5] the test system is TNBS-induced inflammatory bowel disease rat model. Nature of the assay: Oral efficacy in TNBS-induced inflammatory bowel disease rat model. The assay is classed as in vivo, Sprague Dawley rats. As for the experimental part: Sprague Dawley rats aged 7-8 weeks were purchased from OrientBio (Korea), stabilized with general solid feed for 3 days, and then used in this experiment. Feed and water were freely supplied during the experiment period, and the temperature of the breeding room was maintained at 25±1° C. and the relative humidity at 50±10%. Lighting management was controlled in a 12-hour light-dark cycle by an automatic lighting controller.
After anesthetizing rats that had been fasted for 24 hours with diethyl ether, 0.8 mL of 5% TNBS diluted with 50v/v % ethanol was slowly injected into the lumen of the colon using a 1 mL syringe connected to a polyethylene catheter, and then, the rats were left standing for 60 seconds in an inverted position in order to prevent 5% TNBS from leaking into the anus. For the control group, only vehicle [50v/v % ethanol] was injected in the same manner as in the other groups (Thapa et al., 2008).
In order to investigate the effect of the drug, the drug was administered at a constant time every day for 5 days from the day after the TNBS treatment.
Changes in body weight of each rat were observed from the fasting stage to the TNBS administration and drug administration process using a digital mass meter.
The colon of the rat was extracted, and the tissue 5-6 cm away from the anus was cut into a length of 1 cm, and the weight of the tissue was measured.
The weighed rat tissues were fixed with 4% paraformaldehyde solution, and then transferred to 30% sucrose solution. When the tissues subside, they were taken out and cut into […] thick using a cryomicrotome (Microm HM 450, Thermo Fisher Scientific, Germany) and stored in a cryopreservation solution. After washing the tissue section with KPBS, the tissue section was attached to a slide glass, dried, and then stained with hematoxylin & Eosin and observed under a microscope.

[6] abbreviates: 30 mg/kg, listed as tofacitinib.
Where [7] appears, read: 300 mg/kg, dose-dependence test (Table 7).

As to `C[C@@H]1CCN(C(=O)CC#N)C[C@@H]1N(C)c1ncnc2[nH]ccc12` [Tofacitinib, reference compound], the inhibition at 1 µM in assay [1] is 49.1%. The “Morphological observation of colon (length, macroscopic symptoms, adhesions, congestion)” value in assay [2] is “significantly suppressed”. The “Body weight recovery rate (%)” value was 29.5% in assay [2] (30 mg/kg), 29.4% in assay [2] (setting [6]), 80.8% in assay [3] (30 mg/kg) and 80.9% in assay [3] (setting [6]). Moreover, the “Intestinal weight recovery rate (%)” value in assay [2] (30 mg/kg) is listed as 68.2%; in assay [2] (setting [6]), 68.8%; in assay [3] (30 mg/kg) it was 80.9%. Moreover, the “degree of arthritis (visual observation score)” value in assay [4] was “significantly improved dose dependently”.
Take `O=C(O)c1cc(/N=N/c2ccc(S(=O)(=O)Nc3ccccn3)cc2)ccc1O` [Sulfasalazine, reference compound]: the “Body weight recovery rate (%)” value is on record as 86.6% in assay [5] (setting [7]); 86.6% in assay [5] (oral 300 mg/kg, 5 days, fixed-dose test (Table 6), 300 mg/kg); 50.5% in assay [5] (oral 300 mg/kg, 5 days, fixed-dose test (Table 6), listed as sulfasalazine, 300 mg/kg); 22.8% in assay [2] (300 mg/kg); 65.9% in assay [3] (300 mg/kg). Besides, the “Intestinal weight recovery rate (%)” value in assay [5] (setting [7]) is 69.6%; in assay [5] (oral 300 mg/kg, 5 days, fixed-dose test (Table 6)) it was 69.6%; in assay [2] (300 mg/kg), 66.9%; in assay [2] (300 mg/kg, listed as sulfasalazine), 67.3%; in assay [3] (300 mg/kg), 66.2%. Besides, the “Morphological observation of colon (visual symptoms, adhesions, congestion)” value in assay [5] (after 5 days of drug administration, sulfasalazine 300 mg/kg, X-09 0.3-10 mg/kg) is reported as “significantly suppressed”. Moreover, the “Morphological observation of colon (length, macroscopic symptoms, adhesions, congestion)” value in assay [2] is listed as “significantly suppressed”.
